Experimental data from US20260374754A1, “N-((ISOQUINOLIN-6-YL)METHYL)-1H-PYRAZOLE-4-CARBOXAMIDE DERIVATIVES AS PLASMA KALLIKREIN INHIBITORS FOR THE TREATMENT OF HEREDITARY ANGIODEMA” (Takeda Pharmaceutical Company Limited, priority 2022, published 2026).
Structures can show the parent of a compound that is named as a salt.

Molecular target: human activated kallikrein enzyme (Homo sapiens, UniProt P03952)
Experiment: Inhibition of human activated plasma kallikrein, fluorogenic PFR-AMC substrate, 500 pM enzyme format
Format: biochemical
Conditions: 500 pM activated kallikrein; 300 μM PFR-AMC; 30 min preincubation; 10 min room temperature; pH 7.5; read-out: Primary Dose Response Assay: Average EC50
Outline: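 500 pM activated kallikrein preincubated 30 min at room temperature with inhibitors in pH 7.5 Tris/EDTA/NaCl buffer with PEG-400 and Triton X-100. Reaction started with 300 μM PFR-AMC, run 10 min at room temperature; AMC fluorescence read at ex 380/em 460 nm.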

Sequence of human activated kallikrein enzyme (P03952 391-638 limits assumed): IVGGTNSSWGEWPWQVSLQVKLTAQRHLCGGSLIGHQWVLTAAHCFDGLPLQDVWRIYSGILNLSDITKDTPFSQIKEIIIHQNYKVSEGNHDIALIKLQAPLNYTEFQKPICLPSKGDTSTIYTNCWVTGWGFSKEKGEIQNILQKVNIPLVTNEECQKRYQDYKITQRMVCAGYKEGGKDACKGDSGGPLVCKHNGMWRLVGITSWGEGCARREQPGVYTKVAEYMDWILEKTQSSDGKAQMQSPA
Sequence of human activated kallikrein enzyme (P03952 20-390 partner limits assumed): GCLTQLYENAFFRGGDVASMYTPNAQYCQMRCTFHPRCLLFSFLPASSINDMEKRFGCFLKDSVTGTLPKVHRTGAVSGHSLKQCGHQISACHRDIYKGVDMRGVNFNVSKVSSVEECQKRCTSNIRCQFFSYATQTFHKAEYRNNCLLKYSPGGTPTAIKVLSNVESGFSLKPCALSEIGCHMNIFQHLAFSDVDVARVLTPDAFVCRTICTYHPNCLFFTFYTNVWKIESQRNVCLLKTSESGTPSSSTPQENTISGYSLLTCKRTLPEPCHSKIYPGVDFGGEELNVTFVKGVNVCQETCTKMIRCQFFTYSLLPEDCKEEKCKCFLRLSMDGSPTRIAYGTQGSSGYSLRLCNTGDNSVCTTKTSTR

Structure (SMILES)	EC50
Cc1cc2c(N)nccc2c(C)c1CNc1cncc(NCc2ccc(Cn3cccn3)cc2)n1 [Example I-476, N^2-(4-((1H-pyrazol-1-yl)methyl)benzyl)-N^6-((1-amino-5,7-dimethylisoquinolin-6-yl)methyl)pyrazine-2,6-diamine]	10 to 100 nM
Cc1cc2c(N)nccc2c(C)c1CNc1cc(OCc2cn3nc(C4CC4)cc(CN4CCCC4)c3n2)ncn1 [Example 394, 6-(((6-((6-cyclopropyl-8-(pyrrolidin-1-ylmethyl)imidazo[1,2-b]pyridazin-2-yl)methoxy)pyrimidin-4-yl)amino)methyl)-5,7-dimethylisoquinolin-1-amine]	< 1 nM
Cc1cc2c(N)nccc2c(C)c1CNC(=O)c1ccnc(Cc2ccc(Cn3cccn3)cc2)c1 [Example 183]	< 1 nM
Cc1cc2c(N)nccc2c(C)c1CNC(=O)c1cnn(Cc2cn3c(Cl)c(Br)ccc3n2)c1 [Example 138, N-((1-amino-5,7-dimethylisoquinolin-6-yl)methyl)-1-((6-bromo-5-chloroimidazo[1,2-a]pyridin-2-yl)methyl)-1H-pyrazole-4-carboxamide]	< 1 nM
Cc1cc2c(N)nccc2c(C)c1CNc1nccc2cn(Cc3nc4ccc(C5CC5)cn4n3)nc12 [Example 263, 6-(((2-((6-cyclopropyl-[1,2,4]triazolo[1,5-a]pyridin-2-yl)methyl)-2H-pyrazolo[3,4-c]pyridin-7-yl)amino)methyl)-5,7-dimethylisoquinolin-1-amine]	1 to 10 nM
Cc1cc2c(N)nccc2c(C)c1CNC(=O)c1cnn(Cc2cc3cc(F)ccc3o2)c1 [Example 57, N-((1-amino-5,7-dimethylisoquinolin-6-yl)methyl)-1-((5-fluorobenzofuran-2-yl)methyl)-1H-pyrazole-4-carboxamide]	10 to 100 nM
Cc1cc2c(N)nccc2c(C)c1CNc1cc(NCc2ccc(OC(C)(C)C(=O)N(C)C)cc2)ncn1 [Example 354, 2-(4-(((6-(((1-amino-5,7-dimethylisoquinolin-6-yl)methyl)amino)pyrimidin-4-yl)amino)methyl)phenoxy)-N,N,2-trimethylpropanamide, formic acid salt]	10 to 100 nM
Cc1cc2c(N)nccc2c(C)c1CNc1cc(NCc2ccccc2)ncn1 [Example 341, N^4-((1-amino-5,7-dimethylisoquinolin-6-yl)methyl)-N^6-benzylpyrimidine-4,6-diamine]	100 to 1000 nM
Cc1cc2c(N)nccc2c(C)c1CNC(=O)c1cnn(Cc2ccc3cc(Br)ccc3n2)c1 [Example 69, N-((1-amino-5,7-dimethylisoquinolin-6-yl)methyl)-1-((6-bromoquinolin-2-yl)methyl)-1H-pyrazole-4-carboxamide]	1 to 10 nM
Cc1cc2c(N)nccc2c(C)c1CNC(=O)c1cnn(Cc2ccc(CC(=O)N(C)c3ccccc3)cc2)c1 [Example 228, N-((1-amino-5,7-dimethylisoquinolin-6-yl)methyl)-1-(4-(2-(methyl(phenyl)amino)-2-oxoethyl)benzyl)-1H-pyrazole-4-carboxamide]	1 to 10 nM
Cc1cc2c(N)nccc2c(C)c1CNc1cc(OCc2ccc(Cn3ccccc3=O)cc2)ncn1 [Example 301, 1-(4-(((6-(((1-amino-5,7-dimethylisoquinolin-6-yl)methyl)amino)pyrimidin-4-yl)oxy)methyl)benzyl)pyridin-2(1H)-one]	< 1 nM
Cc1cc2c(N)nccc2c(C)c1CNC(=O)c1ccnc(Cc2ccc3ncc(Cl)cc3c2)c1 [Example 197, N-((1-amino-5,7-dimethylisoquinolin-6-yl)methyl)-2-((3-chloroquinolin-6-yl)methyl)isonicotinamide]	< 1 nM
Cc1cc2c(N)nccc2c(C)c1CNc1cc(NCc2ccc(C3CC3)cc2)ncn1 [Example 339, N^4-((1-amino-5,7-dimethylisoquinolin-6-yl)methyl)-N^6-(4-cyclopropylbenzyl)pyrimidine-4,6-diamine]	10 to 100 nM
Cc1cc2c(N)nccc2c(C)c1CNC(=O)c1cnn(Cc2ccc3c(c2)nnn3C)c1 [Example 58, N-((1-amino-5,7-dimethylisoquinolin-6-yl)methyl)-1-((1-methyl-1H-benzo[d][1,2,3]triazol-5-yl)methyl)-1H-pyrazole-4-carboxamide]	1 to 10 nM
Cc1cc2c(N)nccc2c(C)c1CNc1cc(NCc2ccc(OC(F)(F)C(=O)N(C)C)cc2)ncn1 [Example 352, 2-(4-(((6-(((1-amino-5,7-dimethylisoquinolin-6-yl)methyl)amino)pyrimidin-4-yl)amino)methyl)phenoxy)-2,2-difluoro-N,N-dimethylacetamide]	10 to 100 nM
Cc1cc2c(N)nccc2c(C)c1CNC(=O)c1cnn(Cc2ccc3nccnc3c2)c1 [Example 79, N-((1-amino-5,7-dimethylisoquinolin-6-yl)methyl)-1-(quinoxalin-6-ylmethyl)-1H-pyrazole-4-carboxamide]	1 to 10 nM

Structure (SMILES)	EC50
Cc1cc2c(N)nccc2c(C)c1CNc1cc(OCc2cnc3ccccn23)cnn1 [Example 414, 6-(((5-(imidazo[1,2-a]pyridin-3-ylmethoxy)pyridazin-3-yl)amino)methyl)-5,7-dimethylisoquinolin-1-amine]	> 1000 nM
Cc1cc2c(N)nccc2c(C)c1CNc1cnc2[nH]cc(Cc3ccc4ccccc4c3)c2c1 [Example 527, 5,7-dimethyl-6-(((3-(naphthalen-2-ylmethyl)-1H-pyrrolo[2,3-b]pyridin-5-yl)amino)methyl)isoquinolin-1-amine]	> 1000 nM
Cc1cc2c(N)nccc2c(C)c1CNc1cc(NCc2ccc3ccccc3n2)ncn1 [Example 306, N^4-((1-amino-5,7-dimethylisoquinolin-6-yl)methyl)-N^6-(quinolin-2-ylmethyl)pyrimidine-4,6-diamine]	10 to 100 nM
Cc1cc2nc(Cn3cc(C(=O)NCc4c(C)cc5c(N)nccc5c4C)cn3)cn2cc1C1CC1 [Example 146, N-((1-amino-5,7-dimethylisoquinolin-6-yl)methyl)-1-((6-cyclopropyl-7-methylimidazo[1,2-a]pyridin-2-yl)methyl)-1H-pyrazole-4-carboxamide]	< 1 nM
Cc1cc2c(N)nccc2c(C)c1CNC(=O)c1cnn(Cc2ccc(Cc3nncn3C)cc2)c1 [Example 117, N-((1-amino-5,7-dimethylisoquinolin-6-yl)methyl)-1-(4-((4-methyl-4H-1,2,4-triazol-3-yl)methyl)benzyl)-1H-pyrazole-4-carboxamide]	1 to 10 nM
Cc1cc2c(N)nccc2c(C)c1CNc1cc(OCc2cn3cc(C4CC4)cnc3n2)nc(CCC(=O)O)n1 [Example 294, 3-(4-(((1-amino-5,7-dimethylisoquinolin-6-yl)methyl)amino)-6-((6-cyclopropylimidazo[1,2-a]pyrimidin-2-yl)methoxy)pyrimidin-2-yl)propanoic acid]	< 1 nM
Cc1cc2c(N)nccc2c(C)c1CNC(=O)c1cnn(Cc2nc3ccccc3n2C(F)F)c1 [Example 68, N-((1-amino-5,7-dimethylisoquinolin-6-yl)methyl)-1-((1-(difluoromethyl)-1H-benzo[d]imidazol-2-yl)methyl)-1H-pyrazole-4-carboxamide]	10 to 100 nM
Cc1cc2c(N)nccc2c(C)c1CNc1cc(NCc2cc(C)c(OCc3nccs3)c(C)c2)ncn1 [Example 355, N^4-((1-amino-5,7-dimethylisoquinolin-6-yl)methyl)-N^6-(3,5-dimethyl-4-(thiazol-2-ylmethoxy)benzyl)pyrimidine-4,6-diamine, formic acid salt]	1 to 10 nM
Cc1cc2c(N)nccc2c(C)c1CNc1ccc2cnc(Cc3ccc4ncc(Cl)cc4c3)n2c1 [Example 520, 6-(((3-((3-chloroquinolin-6-yl)methyl)imidazo[1,5-a]pyridin-6-yl)amino)methyl)-5,7-dimethylisoquinolin-1-amine]	> 1000 nM
Cc1cc2c(N)nccc2c(C)c1CNc1ncccc1OCc1cn2cc(C3CC3)ccc2n1 [Example 289, 6-(((3-((6-cyclopropylimidazo[1,2-a]pyridin-2-yl)methoxy)pyridin-2-yl)amino)methyl)-5,7-dimethylisoquinolin-1-amine]	100 to 1000 nM
Cc1cc2c(N)nccc2c(C)c1CNc1cc(NCc2ccc3c(c2)OCCN3C)ncn1 [Example 326, N^4-((1-amino-5,7-dimethylisoquinolin-6-yl)methyl)-N^6-((4-methyl-3,4-dihydro-2H-benzo[b][1,4]oxazin-7-yl)methyl)pyrimidine-4,6-diamine, formic acid salt]	1 to 10 nM
Cc1cc2c(N)nccc2c(C)c1CNc1cc(OCc2cn3c(C)c(Cl)ccc3n2)ncn1 [Example 304, 6-(((6-((6-chloro-5-methylimidazo[1,2-a]pyridin-2-yl)methoxy)pyrimidin-4-yl)amino)methyl)-5,7-dimethylisoquinolin-1-amine]	< 1 nM
Cc1cc2c(N)nccc2c(C)c1CNc1cc(C(F)c2cn3cc(C4CC4)ccc3n2)ncn1 (centres unmarked) [Example 529, 6-(((6-((6-cyclopropylimidazo[1,2-a]pyridin-2-yl)fluoromethyl)pyrimidin-4-yl)amino)methyl)-5,7-dimethylisoquinolin-1-amine]	1 to 10 nM
CCOC(=O)N(C)c1ccc(Cn2cc(C(=O)NCc3c(C)cc4c(N)nccc4c3C)cn2)cc1 [Example 25, ethyl (4-((4-(((1-amino-5,7-dimethylisoquinolin-6-yl)methyl)carbamoyl)-1H-pyrazol-1-yl)methyl)phenyl)(methyl)carbamate]	1 to 10 nM
Cc1cc2c(N)nccc2c(C)c1CNC(=O)c1cnn(Cc2ccc(CC(=O)N3CC4CC4C3)nc2)c1 (centres unmarked) [Example 90, 1-((6-(2-(3-azabicyclo[3.1.0]hexan-3-yl)-2-oxoethyl)pyridin-3-yl)methyl)-N-((1-amino-5,7-dimethylisoquinolin-6-yl)methyl)-1H-pyrazole-4-carboxamide]	< 1 nM
COc1cccc(Cn2cc(C(=O)NCc3c(C)cc4c(N)nccc4c3C)cn2)c1 [Example 43, N-((1-amino-5,7-dimethylisoquinolin-6-yl)methyl)-1-(3-methoxybenzyl)-1H-pyrazole-4-carboxamide]	10 to 100 nM
